# Measured values: patent US20230285596A1, “COMPOSITIONS AND METHODS FOR THE TREATMENT OF NIEMANN-PICK TYPE C1 DISEASE” (Voyager Therapeutics, Inc, priority 2020, published 2023)
# B1: Promoter Variant 15: EF-1a promoter variant, 252 nt, SEQ ID NO: 1789 (nucleic acid)
# DNA: GGTGGAGAAGAGCATGCGTGAGGCTCCGGTGCCCGTCAGTGGGCAGAGCGCACATCGCCCACAGTCCCCGAGAAGTTGGGGGGAGGGGTCGGCAATTGAACCGGTGCCTAGAGAAGGTGGCGCGGGGTAAACTGGGAAAGTGATGTCGTGTACTGGCTCCGCCTTTTTCCCGAGGGTGGGGGAGAACCGTATATAAGTGCAGTAGTCGCCGTGAACGTTCTTTTTCGCAACGGGTTTGCCGCCAGAACACAG
# B2: Promoter Variant 11: EF-1a promoter variant, 236 nt, SEQ ID NO: 1785 (nucleic acid)
# DNA: CGTGAGGCTCCGGTGCCCGTCAGTGGGCAGAGCGCACATCGCCCACAGTCCCCGAGAAGTTGGGGGGAGGGGTCGGCAATTGAACCGGTGCCTAGAGAAGGTGGCGCGGGGTAAACTGGGAAAGTGATGTCGTGTACTGGCTCCGCCTTTTTCCCGAGGGTGGGGGAGAACCGTATATAAGTGCAGTAGTCGCCGTGAACGTTCTTTTTCGCAACGGGTTTGCCGCCAGAACACAG
# B3: Promoter Variant 13: EF-1a promoter variant, 241 nt, SEQ ID NO: 1787 (nucleic acid)
# DNA: GCATGCGTGAGGCTCCGGTGCCCGTCAGTGGGCAGAGCGCACATCGCCCACAGTCCCCGAGAAGTTGGGGGGAGGGGTCGGCAATTGAACCGGTGCCTAGAGAAGGTGGCGCGGGGTAAACTGGGAAAGTGATGTCGTGTACTGGCTCCGCCTTTTTCCCGAGGGTGGGGGAGAACCGTATATAAGTGCAGTAGTCGCCGTGAACGTTCTTTTTCGCAACGGGTTTGCCGCCAGAACACAG
# B4: Promoter Variant 18: EF-1a promoter variant, 263 nt, SEQ ID NO: 1791 (nucleic acid)
# DNA: GTCATCACTGAGGTGGAGAAGAGCATGCGTGAGGCTCCGGTGCCCGTCAGTGGGCAGAGCGCACATCGCCCACAGTCCCCGAGAAGTTGGGGGGAGGGGTCGGCAATTGAACCGGTGCCTAGAGAAGGTGGCGCGGGGTAAACTGGGAAAGTGATGTCGTGTACTGGCTCCGCCTTTTTCCCGAGGGTGGGGGAGAACCGTATATAAGTGCAGTAGTCGCCGTGAACGTTCTTTTTCGCAACGGGTTTGCCGCCAGAACACAG
# B5: CMV promoter: short CMV promoter, 205 nt, SEQ ID NO: 1736 (nucleic acid)
# DNA: GTGATGCGGTTTTGGCAGTACATCAATGGGCGTGGATAGCGGTTTGACTCACGGGGATTTCCAAGTCTCCACCCCATTGACGTCAATGGGAGTTTGTTTTGGCACCAAAATCAACGGGACTTTCCAAAATGTCGTAACAACTCCGCCCCATTGACGCAAATGGGCGGTAGGCGTGTACGGTGGGAGGTCTATATAAGCAGAGCTC
# Assays:
# HEK293 cells = experiment: NPC1 protein expression in HEK293 cells transfected with viral genome constructs (ELISA and Western Blot, normalized to GAPDH and transfection efficiency); format: cell-based; conditions: for % over Ref. (% overexpression compared to that of the reference ITR_ITR 2): transfection, NPC1 protein vs reference ITR_ITR 2 (SEQ ID NO: 1753), Table 6; for NPC1 expression normalized to GAPDH and transfection efficiency: EF-1a promoter variants with wtNPC1, FIG. 2
# Source text: The viral genome constructs encoding NPC1 generated, and investigated for expression of NPC1 protein in vitro. Use of different promoters (e.g., CBA promoters or variants thereof, CMV promoters and variants thereof, EF1a promoter variants) and/or codon optimized nucleotide sequences encoding the NPC1 protein (e.g., SEQ ID NO: 1750 or SEQ ID NO: 1749) (Table 6). An additional set of viral genome constructs were also investigated, testing different combinations of promoters and codon optimized sequences (Tables 7, 9 and 10).
# In order to assess NPC1 expression, the viral genome constructs comprising a promoter operably linked to a transgene encoding were transfected into HEK293 cells. NPC1 protein level was determined by ELISA and Western Blot, and normalized to GAPDH control and transfection efficiency. The expression of NPC1 was calculated as percent overexpression relative to the reference construct (ITR_ITR 2 (SEQ ID NO: 1753) which comprises promoter variant 8 (SEQ ID NO: 1782) and the wild-type nucleotide sequence encoding NPC1 (SEQ ID NO: 1747)) (% over reference or % overexpression to reference).
# Table 9 summarizes the constructs tested that comprise promoter variant 11 (SEQ ID NO: 1785), promoter variant 13 (SEQ ID NO: 1787), promoter variant 15 (SEQ ID NO: 1789), or promoter variant 18 (SEQ ID NO: 1791), operably linked to a transgene encoding NPC1 (wild-type or codon optimized nucleotide sequences encoding NPC1). These constructs were transfected into HEK293 cells, and the NPC1 protein expression was measured by ELISA and/or western blot and normalized to expression of a GAPDH control and transfection efficiency. The percent overexpression compared to a reference construct (ITR_ITR2 (SEQ ID NO: 1753), which comprises promoter variant 8 (SEQ ID NO: 1782) and the wild-type nucleotide sequence encoding NPC1 (SEQ ID NO: 1747)) was then calculated for each construct tested (% overexpression to reference) (Table 9, FIGS. 2-3).
# [1] = tested on: animal models of NPC disease; conditions: biweekly intrathecal (IT) injection; cited from earlier work
# human neuronal cells = experiment: NPC1 protein expression in human neuronal cells; format: cell-based; conditions: human neurons, transduced; FIG. 10A
# Source text: Cell-lines and reagents: Standard cell-lines are used for initial screening. This includes lines from multiple species to align with in vivo studies. Since transduction of both neuronal and non-neuronal cell types are needed in vivo, two neuronal and two non-neuronal cell types are used for in vitro screening. These cell lines include naïve neuronal SK-N-AS cells (procured from ATCC), primary neuronal cultures from NPC1^−/− mice (see below), immortalized human hepatocytes (procured from Creative Bioarray or ATCC), NPC1 patient fibroblasts (procured from Coriell) and/or iPS Cells derived from NPC1 patients (Yu, Xiao-Hua, et al. “NPC1, intracellular cholesterol trafficking and atherosclerosis.”Clinica chimica acta 429 (2014): 69-75, the disclosure of which is incorporated by reference in its entirety). Example cell lines for use in assays described herein include fibroblast cell lines, which may be procured from Coriell Institute (Camden, N.J., United States). […]
# NPC1 protein expression was further assessed for constructs ITR_ITR 2, ITR_ITR 1, ITR_ITR 3, ITR_ITR 4, and ITR_ITR 5 (SEQ ID NOs: 1753, 1752, and 1754-1756, respectively) in hepatocytes (FIG. 5, left graph) and constructs ITR_ITR 2, ITR_ITR 1, ITR_ITR 3, ITR_ITR 4, ITR_ITR 5, ITR_ITR 6, and ITR_ITR 7 (SEQ ID NOs: 1753, 1752, and 1754-1758, respectively) in human neuronal cells (FIG. 5, right graph). […]
# NPC1 patient fibroblasts = experiment: NPC1 protein expression in NPC1 patient fibroblasts; format: cell-based, human; conditions: transduced, FIG. 10B
# Source text: NPC1/2 is overexpressed in HEK 293 cells using the AAV vector of Example 1 or other method of transfection. Western Blot and ELISA detection protocols are optimized using routine experimentation to establish assays for NPC1/2 protein detection. These and additional biochemical studies are used to validate assays and establish cell lines for additional in vitro analysis. For example, Western Blot and ELISA assays can be performed and optimized using fibroblast cell lines, which may be obtained from Coriell Institute (Camden, N.J., United States). Fibroblast cell lines can be from healthy individual donors (e.g., Coriell catalog nos. GM00038, GM00302, GM00500, GM00969, and/or GM05758—referred to respectively herein as H1, H2, H3, H4, and H5 cell lines) or from diagnosed Niemann-Pick Disease, Type C1 patient donors (e.g., Coriell catalog nos. GM00110, GM03123, GM18436, and/or GM23162 referred to respectively herein as N1, N2, N3, and N4 cell lines).
# NPC1 protein expression was assessed in healthy and NPC1 patient fibroblasts according to the assays described in Example 2. […] ITR_ITR 1 rescued NPC1 protein to near 100% relative to healthy fibroblasts. ITR_ITR 3 and ITR_ITR 5 rescued NPC1 protein to 100% or greater relative to healthy fibroblasts. […]
# [2] = % overexpression vs reference, Table 8
molecule,measurement,setting,value
ITR_ITR 41: Viral genome SEQ ID NO: 1833: CMVie enhancer (SEQ ID NO: 1737); short CBA promoter; WT NPC1 protein coding sequence,% over Ref. (% overexpression compared to that of the reference ITR_ITR 2),HEK293 cells,165%
CCCCN1C[C@H](O)[C@@H](O)[C@H](O)[C@H]1CO [Miglustat],efficacy in animal models of NPC disease,[1],"effectively delay the onset of neurological signs, ameliorate cerebellar and liver dysfunction, and prolong lifespan"
2-hydroxypropyl-β-cyclodextrin,efficacy in animal models of NPC disease,[1],"effectively delay the onset of neurological signs, ameliorate cerebellar and liver dysfunction, and prolong lifespan"
"wtNPC1: Wild type Human NPC1 Coding Sequence, SEQ ID NO: 1747 [reference compound]","NPC1 expression, CBA promoter with intron",HEK293 cells; [2],72%
same,"NPC1 expression, CBA promoter without intron",HEK293 cells; [2],−15%
same,"NPC1 expression, CMV promoter with intron",HEK293 cells; [2],356%
same,"NPC1 expression, CMV promoter without intron",HEK293 cells; [2],203%
same,"NPC1 expression, Promoter Variant 8 (SEQ ID NO: 1782) with intron",HEK293 cells; [2],311%
ITR_ITR 7: Viral genome SEQ ID NO: 1758: short CBA promoter (SEQ ID NO: 1735); WT NPC1 protein coding sequence,% over Ref. (% overexpression compared to that of the reference ITR_ITR 2),HEK293 cells,−15%
B1,NPC1 expression normalized to GAPDH and transfection efficiency,HEK293 cells,increased NPC1 expression relative to the ITR_ITR 2 reference construct
B2,NPC1 expression normalized to GAPDH and transfection efficiency,HEK293 cells,increased NPC1 expression relative to the ITR_ITR 2 reference construct
same,NPC1 expression (NPC1/B-actin),human neuronal cells,increased expression of NPC1 compared to the CMV promoter
B3,NPC1 expression normalized to GAPDH and transfection efficiency,HEK293 cells,increased NPC1 expression relative to the ITR_ITR 2 reference construct
B4,NPC1 expression normalized to GAPDH and transfection efficiency,HEK293 cells,increased NPC1 expression relative to the ITR_ITR 2 reference construct
B5,NPC1 expression (NPC1/B-actin),NPC1 patient fibroblasts,increased expression of NPC1 compared to Promoter Variant 11
